The source of these data is patent US20140249490A1, “Methods for Prevention and/or Treatment of Capsular Contracture” (J&E SOLUTIONS, LLC, priority 2013, published 2014).

The assay concerns capsular contracture. Put plainly: Clinical cases: topical treatment of breast capsular contracture, Baker grading. The following applies: Patient #1; bilateral Grade 3 capsular contracture, after first revision; given together with massage. It is filed as in vivo, human. The source says:
Wash and dry the affected area (that is, the skin surrounding the implant or the skin over the capsular contracture) prior to use. Apply the composition daily (use sparingly) with vigorous massage to affected area. If necessary, exert compression or pressure when massaging to break up existing capsule. Enhanced absorption is obtained with application of the composition following a hot shower. Occlusive dressing (hydrogel), or tight clothing (sports bras), will also enhance the result. Continued daily use will yield optimal results. […] Optimal results are best maintained with daily continued application. One particularly useful embodiment of the invention involves the use of the topical compositions for the treatment/prevention of capsular contracture in breast surgery (e.g., breast implants). There are four grades of breast capsular contracture—Baker grades I through IV. The Baker grading is as follows: Grade 1—the breast is normally soft and looks natural Grade II—the breast is a little firm but looks normal Grade III—the breast is firm and looks abnormal Grade IV—the breast is hard, painful, and looks abnormal. of developed or is at risk of developing capsular contracture a topical composition.

Structures are written as SMILES.

Take `COc1ccc2cc([C@H](C)C(=O)O)ccc2c1` [Aleve, naproxen sodium]: the “response of capsular contracture to treatment” value was “without result”.
